In publication PMC10324454, “Novel pyrimidine Schiff bases and their selenium-containing nanoparticles as dual inhibitors of CDK1 and tubulin polymerase: design, synthesis, anti-proliferative evaluation, and molecular modelling” (Journal of Enzyme Inhibition and Medicinal Chemistry, 2023):

How the values were obtained:
A549 = assay: cells; parameters: MTT cytotoxicity assay, formazan absorbance, viability IC50; conditions: Homo sapiens
Experimental: (§1) The cytotoxic activity of all synthesised compounds, both normal and nano-sized forms, was evaluated against three cancer cell lines, breast cancer (MCF-7), hepatocellular carcinoma (HepG-2), and non-small cell lung cancer (A549), while the normal Vero cell line was performed for the promising compounds 4, 6 and their nano-sized 4NPs, 6NPs, using the MTT assay according to the literature. The cell lines were obtained from ATCC (American Type Culture Collection). 5-Fluorouracil was used as a control. It is worth noting that freshly prepared nanoparticle-based compounds were used in each of the conducted experiments. The protocol of the MTT assay was illustrated in detail in the Supplementary File. S3 1.1. Biological activity 1.1.1. In vitro cytotoxicity assay The cytotoxic activity of all synthesized compounds, both normal and nano-sized forms, was evaluated against three cancer cell lines, breast cancer (MCF-7), hepatocellular carcinoma (HepG-2), and non-small cell lung cancer (A549), while the normal Vero cell line was performed for the promising compounds 4, 6 and their nano-sized 4NPs, 6NPs, using the MTT assay according to the literature. The cell lines were obtained from ATCC (American Type Culture Collection). 5-Fluorouracil was used as a reference drug. The cytotoxic activities of the examined compounds were quantified by inoculating a 96-well tissue culture plate with 1 X 10 5 cells / mL (100 uL/well) and incubating it at 37°C for 24 hours to develop a complete monolayer sheet. After forming a confluent sheet of cells, the growth medium was decanted from 96-well microtiter plates, and the cell monolayer was washed twice with wash media. Two-fold dilutions of tested samples were made in RPMI medium with 2% serum (maintenance medium), and 0.1 mL of each dilution was tested in different wells, with three wells serving as controls and receiving only maintenance medium. Following that, the plate was incubated at 37°C and examined. Cells were investigated for any physical signs of toxicity, such as partial or complete monolayer loss, rounding, shrinkage, or cell granulation. MTT solution was prepared (5mg/ml in PBS) (BIO BASIC CANADA INC), and 20 uL MTT solution was added to each well. After 5 minutes on a shaking table at 150 rpm to thoroughly mix the MTT into the media, it was incubated (37 ° C, 5% CO2) for 4 hours to allow the MTT to be metabolized. Formazan (MTT metabolic product) was resuspended in 200 uL DMSO and shaken at 150 rpm for 5 minutes to t

HepG-2 = assay: cells; parameters: MTT cytotoxicity assay, formazan absorbance, viability IC50; conditions: Homo sapiens, HepG2
Experimental: as §1

MCF-7 = assay: cells; parameters: MTT cytotoxicity assay, formazan absorbance, viability IC50; conditions: Homo sapiens, MCF7
Experimental: as §1

in vitro = assay: in vitro; parameters: MTT cytotoxicity assay, formazan absorbance, viability IC50; conditions: african green monkey, vero cells; read-out: IC50 Vero
Experimental: The cytotoxic activity of all synthesised compounds, both normal and nano-sized forms, was evaluated against three cancer cell lines, breast cancer (MCF-7), hepatocellular carcinoma (HepG-2), and non-small cell lung cancer (A549), while the normal Vero cell line was performed for the promising compounds 4, 6 and their nano-sized 4NPs, 6NPs, using the MTT assay according to the literature. The cell lines were obtained from ATCC (American Type Culture Collection). 5-Fluorouracil was used as a control. It is worth noting that freshly prepared nanoparticle-based compounds were used in each of the conducted experiments. The protocol of the MTT assay was illustrated in detail in the Supplementary File. S3 1.1. Biological activity 1.1.1. In vitro cytotoxicity assay The cytotoxic activity of all synthesized compounds, both normal and nano-sized forms, was evaluated against three cancer cell lines, breast cancer (MCF-7), hepatocellular carcinoma (HepG-2), and non-small cell lung cancer (A549), while the normal Vero cell line was performed for the promising compounds 4, 6 and their nano-sized 4NPs, 6NPs, using the MTT assay according to the literature. […] The cytotoxic activities of the examined compounds were quantified by inoculating a 96-well tissue culture plate with 1 X 10 5 cells / mL (100 uL/well) and incubating it at 37°C for 24 hours to develop a complete monolayer sheet. […]

[1] = target: T1, tubulin (tubulin polymerase, colchicine binding site); assay: colchicine-tubulin competition-binding assay; conditions: read-out: Tubulin polymerase (CBS) (IC50 μM ± SD)
T1 construct: with alpha/beta-tubulin heterodimer

CDK1 = target: T2, CDK1 (Homo sapiens, UniProt P06493); assay: in vitro CDK1/cyclin B1 kinase inhibition assay (kit); type: biochemical; conditions: read-out: CDK1 (IC50 μM ± SD)
T2 construct: with cyclin B1
T2 sequence (P06493 whole entry): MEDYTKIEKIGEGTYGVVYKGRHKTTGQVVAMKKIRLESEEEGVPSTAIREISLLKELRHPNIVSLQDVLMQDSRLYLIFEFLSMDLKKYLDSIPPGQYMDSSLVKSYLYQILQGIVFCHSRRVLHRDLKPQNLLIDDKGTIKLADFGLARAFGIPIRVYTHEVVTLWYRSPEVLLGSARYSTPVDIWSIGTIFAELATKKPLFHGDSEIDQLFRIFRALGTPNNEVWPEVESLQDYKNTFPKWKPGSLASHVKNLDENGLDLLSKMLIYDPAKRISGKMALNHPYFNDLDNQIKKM
T2 sequence (P14635 whole entry partner): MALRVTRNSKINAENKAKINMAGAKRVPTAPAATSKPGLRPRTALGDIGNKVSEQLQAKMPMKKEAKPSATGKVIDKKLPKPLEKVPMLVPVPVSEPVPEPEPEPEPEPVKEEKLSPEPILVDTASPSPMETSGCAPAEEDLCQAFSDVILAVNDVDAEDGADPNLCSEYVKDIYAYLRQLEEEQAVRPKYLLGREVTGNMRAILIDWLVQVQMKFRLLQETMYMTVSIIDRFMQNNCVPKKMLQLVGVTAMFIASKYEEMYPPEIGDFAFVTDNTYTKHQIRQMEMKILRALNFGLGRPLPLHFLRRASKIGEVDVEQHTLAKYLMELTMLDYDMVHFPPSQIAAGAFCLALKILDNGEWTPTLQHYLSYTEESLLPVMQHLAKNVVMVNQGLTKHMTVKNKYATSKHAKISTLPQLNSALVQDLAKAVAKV

O=c1[nH]cc(F)c(=O)[nH]1 [5-FU, 5-fluorouracil]
IC50 (A549): 760 nM | IC50 (HepG-2): 1360 nM | IC50 (MCF-7): 1820 nM | CC50 (in vitro): 3040 nM

CN(C)c1ccc(/C=N/c2c(N)n(C)c(=O)[nH]c2=O)cc1 [compound 4, (E)-6-amino-5-((4-(dimethylamino)benzylidene)amino)-1-methylpyrimidine-2,4(1H,3H)-dione]
IC50 (HepG-2): 1070 ± 30 nM | IC50 [1]: 1.93 ± 0.119 µM | IC50 (CDK1): 2.18 ± 0.06 µM

Cn1c(N)c(/N=C/c2ccc(O)cc2)c(=O)[nH]c1=O [compound 5, (E)-6-amino-5-((4-hydroxybenzylidene)amino)-1-methylpyrimidine-2,4(1H,3H)-dione]
IC50 (HepG-2): 4070 ± 80 nM

CCn1c(N)c(/N=C/c2ccc(O)cc2)c(=O)[nH]c1=O [compound 6, (E)-6-amino-1-ethyl-5-((4-hydroxybenzylidene)amino)pyrimidine-2,4(1H,3H)-dione]
IC50 (HepG-2): 1970 ± 50 nM

CCn1c(N)c(/N=C/c2ccc([N+](=O)[O-])cc2)c(=O)[nH]c1=O [compound 7, (E)-6-amino-1-ethyl-5-((4-nitrobenzylidene)amino)pyrimidine-2,4(1H,3H)-dione]
IC50 (HepG-2): 3380 ± 110 nM

CCn1c(N)c(/N=C/c2ccccc2[N+](=O)[O-])c(=O)[nH]c1=O [compound 8, (E)-6-amino-1-ethyl-5-((2-nitrobenzylidene)amino)pyrimidine-2,4(1H,3H)-dione]
IC50 (HepG-2): 2100 ± 90 nM

CCn1c(N)c(/N=C/c2ccc(Br)cc2)c(=O)[nH]c1=O [compound 9, (E)-6-amino-5-((4-bromobenzylidene)amino)-1-ethylpyrimidine-2,4(1H,3H)-dione]
IC50 (HepG-2): 3470 ± 90 nM
